Values quoted from earlier work, collected in patent publication US9877951B2, “Method for treating dementia” (College of William and Mary, priority 2015, dated 2018).
Like-named read-outs stand apart in the source and are kept apart here. Values belong to the compound of their own block, whether it stands above or below them.

Legend:
[1] = storage
[2] = test system: Mycobacterium tuberculosis strains; conditions: typical Mycobacterium tuberculosis strains
[3] = for ability of DCS to facilitate extinction: DCS for five consecutive days
[4] = not given; remark: listed apart in the source
[5] = chronic dosing at typical tuberculosis doses

stability relative to DCS [1]: enhanced stability relative to DCS
Compound: CC(=O)C=C(C)N[C@@H]1CONC1=O [(R)-4-[(1-methyl-3-oxo-1-butenyl)-amino]-3-isoxazolidinone]

Compound: N[C@@H]1CON=C1O [DCS, 3-Isoxazolidinone, 4-amino-, (4R)-(9Cl)]
minimum inhibitory concentrations (MIC) in vitro [2]: 6 to 25 µg/mL | benefit on Alzheimer's Disease (100 mg daily administration (Tsai et al.)): positive benefit | benefit for treatment of Alzheimer's Disease (up to 50 mg daily dosing, 410-patient trial (Fakouhi et al.)): did not have a significant benefit | ability of DCS to facilitate extinction learning ([3]; rats exposed to DCS for 15 consecutive days): eliminated | ability of DCS to facilitate extinction ([3]; rats, extinction paradigm 28 days later): restored | ability of DCS to facilitate extinction ([3]; rats, extinction paradigm two days later): significantly decreased | serum concentrations generally maintained ([4]; dose of 500 mg/day): 25000 to 30000 ng/mL | time of peak serum concentrations after dosing ([4]; oral capsules): 3 to 8 h | peak serum concentrations ([4]; sub-antimicrobial doses (less than or equal to 2 mg/kg)): less than or equal to 5 μg/mL | recorded side effects [5]: drowsiness, depression, headache, confusion, tremor, vertigo, and memory difficulties, paresthesias, and seizure

Compound: CN(C)CCCN1c2ccccc2CCc2ccccc21 [imipramine]
effect on ability of DCS to facilitate extinction learning ([3]; rats, daily administration of imipramine for 15 days): blocked the ability of DCS to facilitate extinction learning
